# Laboratory results taken from US20240226048A1, “METHODS OF TREATMENT USING BEMPEDOIC ACID” (Esperion Therapeutics, Inc., priority 2023, published 2024).
# Experiment: CLEAR OUTCOMES trial: adverse events and safety laboratory findings
# Format: in vivo, human
# Details: for Any muscle disorder, %: prespecified adverse event of special interest
# Excerpt: The CLEAR OUTCOMES trial was a randomized, placebo-controlled, double-blind trial that enrolled patients at 1250 sites in 32 countries. An independent Data Monitoring Committee reviewed safety and efficacy data during the trial. Patients 18 to 85 years of age were eligible for enrollment if they met either of two criteria for increased cardiovascular risk, a prior cardiovascular event (secondary prevention) or clinical features that placed them at high risk for a cardiovascular event (primary prevention). (Nicholls […], Bays H E, et al. Rationale and design of the CLEAR-outcomes trial: Evaluating the effect of bempedoic acid on cardiovascular events in patients with statin intolerance. Am Heart J. 2021 May; 235: 104-112) All patients provided written informed consent. Patients had to report statin intolerance due to an adverse effect that started or increased during statin therapy and resolved or improved after statin therapy was discontinued. Patients could be enrolled if they tolerated a very low average daily statin dose (e.g., an average daily dose of rosuvastatin <5 mg, atorvastatin <10 mg, simvastatin <10 mg, lovastatin <20 mg, pravastatin <40 mg, fluvastatin <40 mg, or pitavastatin <2 mg). Other lipid-lowering therapies were permitted, including ezetimibe, niacin, bile acid resins, fibrates, and/or proprotein convertase subtilisin kexin type 9 (PCSK9) inhibitors. Full inclusion and exclusion criteria are provided in Nicholls et al. (Am Heart J. 2021). Eligible patients entered a 4-week run-in period during which patients were treated with single-blind placebo. If patients were intolerant to placebo treatment or if adherence was <80% by tablet count, they were not eligible for randomization. […] Beginning 6 months after enrollment, the central laboratory notified the investigator if the patient's LDL-cholesterol level was ≥25% higher than baseline. These patients were counseled on healthy dietary guidelines and reminded to take all lipid-regulating medications. If repeat testing confirmed that LDL-cholesterol value met the threshold criteria, the provider could adjust the lipid-lowering treatment regimen per standard of care and local guidelines.
# [1] = N = 7001, listed as bempedoic acid
# [2] = at any visit, repeated and confirmed, N = 7001
smiles,measurement,setting,value
"CC(C)(CCCCCC(O)CCCCCC(C)(C)C(=O)O)C(=O)O [Bempedoic Acid, Bempedoic acid]","Adverse event leading to drug discontinuation, %","180 mg oral daily, N = 7001",(11.0) %
same,"Any treatment emergent adverse event, %","180 mg oral daily, N = 7001",(86.3) %
same,"Serious treatment emergent adverse event, %","180 mg oral daily, N = 7001",(25.4) %
same,"Adjudicated tendon rupture, %",N = 7001,(1.2) %
same,"Atrial fibrillation, %",N = 7001,(3.3) %
same,"Cholelithiasis, %",N = 7001,(2.2) %
same,"Discontinuation of treatment due to myalgia, %",N = 7001,(1.8) %
same,"Elevated hepatic enzymes, %",N = 7001,(4.5) %
same,"Gout, %",N = 7001,(3.1) %
same,"Hyperuricemia, %",N = 7001,(10.9) %
same,"Hypoglycemia, %",N = 7001,(4.3) %
same,"Malignancies, %",N = 7001,(4.7) %
same,"Metabolic acidosis, %",N = 7001,(0.2) %
same,"Myalgia, %",N = 7001,(5.6) %
same,"Neurocognitive disorders, %",N = 7001,(0.8) %
same,"Renal impairment, %",N = 7001,(11.5) %
same,"Tendinopathies, %",N = 7001,(1.7) %
same,"Cholelithiasis, %",[1],2.2%
same,"Elevated hepatic enzymes, %",[1],4.5%
same,"Gout, %",[1],3.1%
same,"Hyperuricemia, %",[1],10.9%
same,"Renal impairment, %",[1],11.5%
same,Change from baseline in creatinine levels,"after 6 months, mean",0.05 mg/dL
same,Change from baseline in uric acid levels,"after 6 months, mean",0.76 mg/dL
same,Change from baseline in glycated hemoglobin level (%),"after 12 months, not a prespecified safety measure",0.04%
same,"Creatine kinase levels >5x ULN (repeated and confirmed), %","at any visit, N = 7001",(0.1) %
same,"Creatine kinase levels >5x ULN (single occurrence), %","at any visit, N = 7001",(0.6) %
same,"Alanine aminotransferase level >3 times ULN, %",[2],(1.2) %
same,"Aspartate aminotransferase level >3 times ULN, %",[2],(1.1) %
same,tolerability of treatment,discontinuation rates similar to placebo,well tolerated
same,"Worsening hyperglycemia, %",in patients with diabetes at baseline,(22.7) %
same,Mean changes in creatinine and uric acid from baseline compared with placebo,in vivo,larger
same,"New onset diabetes in patients with normoglycemia at baseline, %",in vivo,(5.5) %
same,"New onset diabetes in patients with pre-diabetes at baseline, %",in vivo,(19.5) %
same,"New onset diabetes in patients without diabetes at baseline, %",in vivo,(16.1) %
same,Rates of liver transaminase elevations >3×ULN compared with placebo,in vivo,more frequent
same,"Any muscle disorder, %",N = 7001,(15.0) %
same,"Any muscle disorder, %",[1],15.0%
same,"between group differences in overall rates of adverse events, serious adverse events, or adverse events leading to drug discontinuation",vs placebo,not clinically meaningful between group differences
same,"other prespecified adverse events of special interest (diabetes, hypoglycemia, metabolic acidosis, neurocognitive disorders, atrial fibrillation, tendinopathies, malignancies)",vs placebo,no differences
